According to US6734292B1, “Pseudoerythromycin derivatives” (The Kitasato Institute, priority 2002, dated 2004):

System: THP-1 cells
Test: enhancing effect for differentiation-induction from human monocyte to macrophage (THP-1/Mφ system, MTT readout)
Type: cell-based
Parameters: key: ++: enhanced 100% or more; +: enhanced 50-100%; ±: enhanced 25-50%; −: no activity; /: expressed cytoxicity; NT: not tested or under assessment
Conditions: in comparison with enhancing action for differentiation-induction of EM 100 μM
Procedure: In order to confirm enhancing effect for differentiation-induction of the compounds of the present invention, the enhancing effect for differentiation-induction from human monocyte to macrophage was assayed. Method is performed as follows. THP-1 cells were collected from cultured liquid by centrifugation, adjusted the concentration to 2×10^5 cells/ml using medium (RPMI 1640) and distributed into the 48-well plate at 500 μl/well. PMA solution 10 μl and sample solution 5 μl were added in each well, stirred with mild shaking and incubated at 37° C. for 72-96 hours under 5% CO2. Further MTT 0.5 mg/ml solution was added at 300 μl/well, and incubated at 37° C. for 3 hours under 5% CO2. Supernatant solution was suctioned using the injection tube, added DMSO 500 μl using automatic continuous injector to dissolve formazan completely and transferred each 100 μl to the 96-well plate. The optical absorption was measured using the plate-reader.

Row | Structure (SMILES) | activities in THP-1/Mφ system, Treated conc. 0.3 μM | activities in THP-1/Mφ system, Treated conc. 1 μM | activities in THP-1/Mφ system, Treated conc. 3 μM | activities in THP-1/Mφ system, Treated conc. 10 μM | activities in THP-1/Mφ system, Treated conc. 30 μM
1 | C#CCNC1CC(C)OC(OC2C(C)C(OC3CC(C)(OC)C(O)C(C)O3)C(C)C(=O)OC(C(C)(O)C(O)CC)C(C)C3=C(C)CC2(C)O3)C1O (centres unmarked) [EM728, bis-de(3′-N-methyl)-3′-N-propargyl-8,9-anhydro-pseudoerythromycin A 6,9-hemiketal] | − | + (enhanced 50-100%) | + (enhanced 50-100%) | + (enhanced 50-100%) | + (enhanced 50-100%)
2 | C#CCN(CC#C)C1CC(C)OC(OC2C(C)C(OC3CC(C)(OC)C(O)C(C)O3)C(C)C(=O)OC(C(C)(O)C(O)CC)C(C)C3=C(C)CC2(C)O3)C1O (centres unmarked) [EM729, bis-de(3′-N-methyl)-3′,3′-N,N-di-propargyl-8,9-anhydro-pseudoerythromycin A 6,9-hemiketal] | − | ± (enhanced 25-50%) | ± (enhanced 25-50%) | ± (enhanced 25-50%) | 
3 | CCCNC1CC(C)OC(OC2C(C)C(OC3CC(C)(OC)C(O)C(C)O3)C(C)C(=O)OC(C(C)(O)C(O)CC)C(C)C3=C(C)CC2(C)O3)C1O (centres unmarked) [EM730, bis-de(3′-N-methyl)-3′-N-propyl-8,9-anhydro-pseudoerythromycin A 6,9-hemiketal] | + (enhanced 50-100%) | + (enhanced 50-100%) | + (enhanced 50-100%) |  | 
4 | CCCN(CCC)C1CC(C)OC(OC2C(C)C(OC3CC(C)(OC)C(O)C(C)O3)C(C)C(=O)OC(C(C)(O)C(O)CC)C(C)C3=C(C)CC2(C)O3)C1O (centres unmarked) [EM731, bis-de(3′-N-methyl)-3′,3′-N,N-di-propyl-8,9anhydro-pseudoerythromycin A 6,9-hemiketal] | − | − | + (enhanced 50-100%) |  | 
5 | CCC(O)C(C)(O)C1OC(=O)C(C)C(OC2CC(C)(OC)C(O)C(C)O2)C(C)C(OC2OC(C)CC(NCc3ccccc3)C2O)C2(C)CC(C)=C(O2)C1C (centres unmarked) [EM732, bis-de(3′-N-methyl)-3′-N-benzyl-8,9-anhydro-pseudoerythromycin A 6,9-hemiketal] | + (enhanced 50-100%) | + (enhanced 50-100%) | + (enhanced 50-100%) | + (enhanced 50-100%) | 
6 | CCC(O)C(C)(O)C1OC(=O)C(C)C(OC2CC(C)(OC)C(O)C(C)O2)C(C)C(OC2OC(C)CC(N(Cc3ccccc3)Cc3ccccc3)C2O)C2(C)CC(C)=C(O2)C1C (centres unmarked) [EM733, bis-de(3′-N-methyl)-3′,3′-N,N-di-benzyl-8,9-anhydro-pseudoerythromycin A 6,9-hemiketal] | − | ± (enhanced 25-50%) | ± (enhanced 25-50%) |  | 
7 | CCC(O)C(C)(O)C1OC(=O)C(C)C(OC2CC(C)(OC)C(O)C(C)O2)C(C)C(OC2OC(C)CC(N3CCCC3)C2O)C2(C)CC(C)=C(O2)C1C (centres unmarked) [EM735, de(3′-dimethylamino)-3′-pyrrolidino-8,9-anhydro-pseudoerythromycin A 6,9-hemiketal] | − | ± (enhanced 25-50%) | + (enhanced 50-100%) | ++ (enhanced 100% or more) | 
8 | CC[C@@H](O)[C@@](C)(O)[C@@H]1OC(=O)[C@H](C)[C@@H](O[C@H]2C[C@@](C)(OC)[C@@H](O)[C@H](C)O2)[C@H](C)[C@@H](O[C@@H]2O[C@H](C)C[C@H](NC(C)C)[C@H]2O)[C@@]2(C)CC(C)=C(O2)[C@@H]1C [EM736, bis-de(3′-N-methyl)-3′-N-(2-propyl)-8,9-anhydro-pseudoerythromycin A 6,9-hemiketal] | − | ± (enhanced 25-50%) | + (enhanced 50-100%) | ++ (enhanced 100% or more) | 
9 | CCC(O)C(C)(O)C1OC(=O)C(C)C(O)C(C)C(OC2OC(C)CC(N(C)C)C2O)C2(C)CC(C)=C(O2)C1C (centres unmarked) [EM737, de(3-O-cladinosyl)-8,9-anhydro-pseudo erythromycin A 6,9-hemiketal] |  |  | − | + (enhanced 50-100%) | 
10 | CCC(O)C(C)(O)C1OC(=O)C(C)C(OC2CC(C)(OC)C(O)C(C)O2)C(C)C(OC2OC(C)CC(N(C)CCF)C2O)C2(C)CC(C)=C(O2)C1C (centres unmarked) [EM740] | ± (enhanced 25-50%) | ± (enhanced 25-50%) | + (enhanced 50-100%) | + (enhanced 50-100%) | + (enhanced 50-100%)
11 | CCC(O)C(C)(O)C1OC(=O)C(C)C(OC2CC(C)(OC)C(O)C(C)O2)C(C)C(OC2OC(C)CC(N(C)CC#N)C2O)C2(C)CC(C)=C(O2)C1C (centres unmarked) [EM742, de(3′-N-methyl)-3′-cyanomethyl-8,9-anhydro-pseudoerythromycin A 6,9-hemiketal] | − | − | − | + (enhanced 50-100%) | + (enhanced 50-100%)
12 | COC1(C)CC(OC2C(C)C(=O)OC(C(C)=NO)C(C)C3=C(C)CC(C)(O3)C(OC3OC(C)CC(N(C)C)C3O)C2C)OC(C)C1O (centres unmarked) [EM743, de(12-hydroxy)-de[12-(1-hydroxypropyl)]-12-hydroxyoxime-8,9-anhydro-pseudoerythromycin A 6,9-hemiketal] |  | − | ± (enhanced 25-50%) | − | 
13 | CC[C@@H](O)[C@@](C)(O)[C@@H]1OC(=O)[C@H](C)[C@@H](O[C@H]2C[C@@](C)(OC)[C@@H](O)[C@H](C)O2)[C@H](C)[C@@H](O[C@@H]2O[C@H](C)C[C@H](N(C)CCCO)[C@H]2O)[C@@]2(C)CC(C)=C(O2)[C@@H]1C [EM744] |  | − | − | − | 
14 | CC[C@@H](O)[C@@](C)(O)[C@@H]1OC(=O)[C@H](C)[C@@H](O[C@H]2C[C@@](C)(OC)[C@@H](O)[C@H](C)O2)[C@H](C)[C@@H](O[C@@H]2O[C@H](C)C[C@H](N(C)CCOC(C)=O)[C@H]2O)[C@@]2(C)CC(C)=C(O2)[C@@H]1C [EM745, de(3′-N-methyl)-3′-N-(2-acetoxyethyl)-8,9-anhydro-pseudoerythromycin A 6,9-hemiketal] | − | − | ++ (enhanced 100% or more) | ++ (enhanced 100% or more) | ++ (enhanced 100% or more)
15 | COC1(C)CC(OC2C(C)C(=O)OC(C(C)O)C(C)C3=C(C)CC(C)(O3)C(OC3OC(C)CC(N(C)C)C3O)C2C)OC(C)C1O (centres unmarked) [EM746, de[12-(hydroxypropyl)]-8,9-anhydro-pseudo erythromycin A 6,9-hemiketal] | − | ± (enhanced 25-50%) | + (enhanced 50-100%) | + (enhanced 50-100%) | + (enhanced 50-100%)
16 | CC[C@@H](O)[C@@](C)(O)[C@@H]1OC(=O)[C@H](C)[C@@H](O[C@H]2C[C@@](C)(OC)[C@@H](O)[C@H](C)O2)[C@H](C)[C@@H](O[C@@H]2O[C@H](C)C[C@H](N3CCOCC3)[C@H]2O)[C@@]2(C)CC(C)=C(O2)[C@@H]1C [EM747, de(3′-dimethylamino)-3′-morpholino-8,9-anhydro-pseudoerythromycin A 6,9-hemiketal] |  |  | − | ± (enhanced 25-50%) | ++ (enhanced 100% or more)
17 | CCC(O)C(C)(O)C1OC(=O)C(C)C(OC2CC(C)(OC)C(O)C(C)O2)C(C)C(OC2OC(C)CC(N(CCCCCCCCCCBr)CCCCCCCCCCBr)C2O)C2(C)CC(C)=C(O2)C1C (centres unmarked) [EM749, bis-de(3′-N-methyl)-3′,3′-N,N-di-(10-bromo-1-decanyl)-8,9-anhydro-pseudoerythromycin A 6,9-hemiketal] |  | ± (enhanced 25-50%) | + (enhanced 50-100%) | + (enhanced 50-100%) | /insolule
18 | COC1(C)CC(OC2C(C)C(=O)OC(C(C)N)C(C)C3=C(C)CC(C)(O3)C(OC3OC(C)CC(N(C)C)C3O)C2C)OC(C)C1O (centres unmarked) [EM750, de(12-hydroxy)-de[12-(hydroxypropyl)]-12-amino-8,9-anhydro-pseudoerythromycin A 6,9-hemiketal] |  | − | − | ± (enhanced 25-50%) | 
